Structures are written as SMILES. Where “and” joins values, the source holds several entries; their conditions need not be identical. Equal entries are not always repeated. Where two headings read alike, the source gives them in different places.

Holding throughout (settings): in vivo
The subject of assay [1] is downy mildew (Pseudoperonospora cubensis).
For assay [2] the test system is unchanged. This is another data set of the same source.
The test system is the same in assay [3]. The source holds these as a separate data set.
In assay [4] the test system is late blight (Phytophthora infestans).
For assay [5] the test system is unchanged. The source holds these as a separate data set.
For assay [6], the system named is downy mildew (Pseudoperonospora cubensis). The source holds these as a separate data set.
Assay [7] shares this test system. This is another data set of the same source.

In turn, `CO/N=C(/C(=O)OC)c1ccccc1COc1ccccc1C` [Compound (b), methyl (E)-methoxyimino[α-(o-tolyloxy)-O-tolyl]acetate] had an Incidence rate in assay [1] of 100%.

With `CO/C=C(/C(=O)OC)c1ccccc1Oc1cc(Oc2ccccc2C#N)ncn1` [Compound (a), methyl (E)-2-{2-[6-(2-cyanophenoxy)pyrimidin-4-yloxy]phenyl}-3-methoxyacrylate], in assay [1], the “Theoretical incidence rate (Colby's formula)” value is on record as 100 (100) %.

For `OP(O)O` [H2(PO3H), phosphorous acid], the Incidence rate in assay [2] and in assay [3] was 75% throughout.

As to `O=P([O-])([O-])O.[Na+].[Na+]` [Na2HPO4, disodium hydrogenphosphate], the Incidence rate in assay [2] and in assay [3] was 100% throughout.

`CCNC(=O)NC(=O)C(C#N)=NOC` [Cymoxanil, 1-(2-cyano-2-methoxyiminoacetyl)-3-ethylurea] showed an Incidence rate in assay [4] of 100%.

`COCC(=O)N(c1c(C)cccc1C)C(C)C(=O)OC` (racemic) [Metalaxyl, methyl N-(2-methoxyacetyl)-N-(2,6-xylyl)-DL-alaninate]: the Incidence rate in assay [1] was 60% and 100%.

Turning to `O=P([O-])([O-])O.[K+].[K+]` [K2HPO4, dipotassium hydrogenphosphate], the Incidence rate in assay [2] and in assay [3] was 95% throughout.

Turning to `COc1ccc(C(=CC(=O)N2CCOCC2)c2ccc(Cl)cc2)cc1OC` [Dimethomorph, (E,Z)-4-[(3-(4-chlorophenyl)-3-(3,4-dimethoxyphenyl)acryloyl]morpholine], the Incidence rate was 85% and 100% in assay [4]; 50% and 60% in assay [1].

In the case of `Cc1ccc(-c2c(Cl)nc(C#N)n2S(=O)(=O)N(C)C)cc1` [Compound No. 1, 4-chloro-2-cyano-1-dimethylsulfamoyl-5-(4-methylphenyl)imidazole], the Incidence rate in assay [5] was 47% and 50% and 31% and 37%; in assay [2], 85% and 90%; in assay [6], 87% and 95%. Moreover, the “Lesion-free Area Ratio” value in assay [7] is on record as 65%.
